Assay results from patent US20040110758A1, “4,6-Diaminosubstituted-2-[oxy or aminoxy]-[1,3,5]triazines as protein tyrosine kinase inhibitors” (priority 2002, published 2004).

Experiments:
KDR [1] = biological target: T1, KDR (Homo sapiens, UniProt P35968); assay: KDR Enzymatic Assay (fluorescence polarization competition immunoassay); type: biochemical; details: for IC50: 1.6 nM KDR, 10 μM ATP, 10 μg/ml poly(E4,Y), averages of three independent measurements, read-out: IC50 Enzyme; for protein tyrosine kinase (KDR) inhibition, potency in words: text commentary on Table 1
Procedure: KDR Enzymatic Assay. A fluorescence polarization competition immunoassay was used to determine the compound potency for KDR. The assay was performed in black 96-well microplates (LJL BioSystems). The assay buffer used was 100 mM HEPES, pH 7.5, 1 mM DTT, 0.01% (v/v) Tween-20. Compounds were diluted in assay buffer containing 4% DMSO just prior to the assay. […] The kinase reaction was initiated by adding 2 μl of 8 nM KDR in assay buffer.
The plates were incubated at room temperature for 5 min. At the end of the incubation, the reaction was quenched with 1.2 μl of 50 mM EDTA. Following a 5-min incubation, each well received 10 μl of a 1:1:3 mixture of anti-phosphotyrosine antibody, 10×, PTK green tracer, 10× (vortexed), FP dilution buffer, respectively (all from PanVera, cat. # P2837). The plate was covered, incubated for 30 min at room temperature and the fluorescence polarization was read on an ANALYST™ HT Assay Detection System (LJL Biosystems, Sunnyvale, Calif.). The instrument settings were: 485 nm excitation filter; 530 nm emission filter; Z height: middle of well; G factor: 0.93. […] The IC50 values reported are the averages of three independent measurements.
Target sequence in this assay (P35968 20-1356, species assumed): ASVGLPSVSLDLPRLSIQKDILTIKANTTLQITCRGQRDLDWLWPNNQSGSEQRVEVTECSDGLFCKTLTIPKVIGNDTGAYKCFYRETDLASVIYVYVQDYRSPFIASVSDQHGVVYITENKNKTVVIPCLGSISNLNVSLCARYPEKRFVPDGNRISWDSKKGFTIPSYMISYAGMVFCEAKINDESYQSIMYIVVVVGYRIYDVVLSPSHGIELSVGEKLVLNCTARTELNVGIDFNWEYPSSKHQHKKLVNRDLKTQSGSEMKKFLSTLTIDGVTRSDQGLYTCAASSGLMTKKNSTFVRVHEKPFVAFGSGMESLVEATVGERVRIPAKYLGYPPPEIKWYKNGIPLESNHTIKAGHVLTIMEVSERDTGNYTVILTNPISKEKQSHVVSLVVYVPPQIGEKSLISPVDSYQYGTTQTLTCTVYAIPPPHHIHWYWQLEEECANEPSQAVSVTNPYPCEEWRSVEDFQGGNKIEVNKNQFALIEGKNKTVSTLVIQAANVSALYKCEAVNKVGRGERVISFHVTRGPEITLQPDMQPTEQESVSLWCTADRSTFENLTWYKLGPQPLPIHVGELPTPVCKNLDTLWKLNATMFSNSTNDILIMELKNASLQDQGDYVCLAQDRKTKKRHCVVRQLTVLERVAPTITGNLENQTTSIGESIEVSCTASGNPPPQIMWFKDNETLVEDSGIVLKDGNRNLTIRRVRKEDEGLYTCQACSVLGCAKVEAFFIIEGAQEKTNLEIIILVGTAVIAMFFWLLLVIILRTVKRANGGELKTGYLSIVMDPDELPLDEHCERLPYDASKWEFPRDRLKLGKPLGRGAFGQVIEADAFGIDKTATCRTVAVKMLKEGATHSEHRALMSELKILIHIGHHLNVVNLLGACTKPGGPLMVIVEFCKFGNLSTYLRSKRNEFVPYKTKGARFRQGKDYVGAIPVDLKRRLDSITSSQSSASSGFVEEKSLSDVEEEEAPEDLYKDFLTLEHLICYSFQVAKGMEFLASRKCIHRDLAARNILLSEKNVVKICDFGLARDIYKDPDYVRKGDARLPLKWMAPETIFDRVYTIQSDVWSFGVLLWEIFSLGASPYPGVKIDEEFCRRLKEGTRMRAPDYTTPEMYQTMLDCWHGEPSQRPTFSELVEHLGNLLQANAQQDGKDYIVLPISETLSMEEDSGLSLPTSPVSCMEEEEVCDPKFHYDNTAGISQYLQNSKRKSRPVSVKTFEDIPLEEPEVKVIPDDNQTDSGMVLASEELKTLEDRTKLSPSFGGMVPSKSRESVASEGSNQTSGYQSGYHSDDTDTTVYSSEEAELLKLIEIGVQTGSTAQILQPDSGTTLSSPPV

KDR [2] = biological target: T1, KDR; assay: KDR Cell-Based Assay (VEGF-stimulated MAP kinase activation in HUVEC); design: which express endogenous Flk-1(KDR); endogenous in cells; host or cells: HUVEC (human umbilical vein endothelial cells); details: compounds 30 minutes prior to 25 ng/ml VEGF for 10 minutes, phosphorylated MAP kinase immunoblot
Procedure: KDR Cell-Based Assay. To determine the effect of the test compounds on KDR function in cells, VEGF-stimulated MAP kinase activation in human umbilical vein endothelial cells (HUVEC), which express endogenous Flk-1(KDR), was examined. HUVECs were grown to confluence in EMB-2 endothelial cell media (Biowhittaker Inc., Walkersville, Md.) at 37° C. and 5% CO2. Confluent, quiescent HUVECs were treated with the test compounds 30 minutes prior to stimulation with 25 ng/ml VEGF for 10 minutes at 37° C. These cells were then lysed in HNTG buffer (50 mM HEPES, 150 mM NaCl, 1% triton-X-100, 1.5 mM MgCl2, 10% glycerol, 10 mM NaF, 1 mM EDTA, 10 mM sodium pyrophosphate, 1 uM PMSF and 250 uM NaVO4). Cell lysates (40 ug total protein) were separated by SDS-PAGE and transferred to nitrocellulose. Immunoblots were probed with a polyclonal antibody to phosphorylated MAP kinase (Cell Signaling Technologies, Woburn, Mass.) and alkaline phosphatase conjugated secondary antibody (Biorad Labs, Hercules, Calif.). Immunoblot detection was done by measuring the fluorescent product of the alkaline phosphatase reaction with the substrate 9H-(1,3-dichloro-9,9-dimethylacridin-2-one-7-yl) phosphate, diammonium salt (DDAO phosphate) (Molecular Probes, Eugene, Oreg.) using a Molecular Dynamics Typhoon Imaging system (Molecular Dynamics, Sunnyvale, Calif.). Quantitation of DDAO phosphate signal and IC50 determinations were done with Molecular Dynamics ImageQuant software.
Target sequence in this assay (P35968 20-1356): as the sequence (P35968 20-1356, species assumed) above

| IC50 (KDR [1]) [nM] | IC50 (KDR [2]) [nM] | protein tyrosine kinase (KDR) inhibition, potency in words (KDR [1]) | SMILES |
| --- | --- | --- | --- |
| 1000 to 15000 | – | less active than Examples 3 and 4 | Oc1nc(NCc2ccccc2)nc(Nc2ccc3ncsc3c2)n1 [Example 2, 4-(Benzothiazol-6-ylamino)-6-(benzylamino)-[1,3,5]triazin-2-ol] |
| < 1000 | 1000 to 15000 | – | CC(C)(Nc1nc(O)nc(Nc2ccc3ncccc3c2)n1)c1ccccc1 [Example 7, 4-(1-methyl-1-phenylethylamino)-6-(guinolin-6-ylamino)-[1,3,5]triazin-2-ol] |
| 1000 to 15000 | – | – | CC(C)(Nc1ncnc(Nc2ccc3ncsc3c2)n1)c1ccccc1 [Example 16, N-(Benzothiazol-6-yl)-N′-(1-methyl-1-phenylethyl)-[1,3,5]triazine-2,4-diamine] |
| 1000 to 15000 | – | – | COc1nc(Nc2ccc3ncsc3c2)nc(NC(C)(C)c2ccccc2)n1 [Example 17, N-(Benzothiazol-6-yl)-6-methoxy-N′-(1-methyl-1-1-phenylethyl)-[1,3,5]triazine-2,4-diamine] |
| 1000 to 15000 | – | – | CC(C)(Nc1nc(Nc2ccc3ncsc3c2)nc(OCc2ccccc2)n1)c1ccccc1 [Example 18, N-(Benzothiazol-6-yl)-6-benzyloxy-N′-(1-methyl-1-phenylethyl)-[1,3,5]triazine-2,4-diamine] |

More lines, now with the values behind:

| SMILES | IC50 (KDR [1]) [nM] | IC50 (KDR [2]) [nM] | protein tyrosine kinase (KDR) inhibition, potency in words (KDR [1]) |
| --- | --- | --- | --- |
| CCN(Cc1ccccc1)c1nc(O)nc(Nc2ccc3ncsc3c2)n1 [Example 1, 4-(Benzothiazol-6-ylamino)-6-(N-ethylbenzylamino)-[1,3,5]triazin-2-ol] | < 1000 | < 1000 | – |
| C[C@@H](Nc1nc(O)nc(Nc2ccc3ncsc3c2)n1)c1ccccc1 [Example 3, (R)-4-(Benzothiazol-6-ylamino)-6-(1-phenylethylamino)-[1,3,5]triazin-2-ol] | < 1000 | 1000 to 15000 | more potent than the corresponding S-enantiomer |
| C[C@H](Nc1nc(O)nc(Nc2ccc3ncsc3c2)n1)c1ccccc1 [Example 4, (S)-4-(Benzothiazol-6-ylamino)-6-(1-phenylethylamino)-[1,3,5]triazin-2-ol] | 1000 to 15000 | – | – |
| CC(C)(Nc1nc(O)nc(Nc2ccc3ncsc3c2)n1)c1ccccc1 [Example 5] | < 1000 | < 1000 | one of the most potent protein tyrosine kinase inhibitors tested |
| CN(CCc1ccccn1)c1nc(O)nc(Nc2ccc3ncsc3c2)n1 [Example 6, 4-(Benzothiazol-6-ylamino)-6-[methyl-(2-pyridyl-2-ylethyl)amino]-[1,3,5]triazin-2-ol] | < 1000 | 1000 to 15000 | – |
| Oc1nc(Nc2ccc3ncsc3c2)nc(N2CCCC2c2ccccc2)n1 (stereo not shown) [Example 8, 4-(Benzothiazol-6-ylamino)-6-(2-phenyl-pyrrolidin-1-yl)-[1,3,5]triazin-2-ol] | < 1000 | 1000 to 15000 | – |
| Oc1nc(Nc2ccc3ncsc3c2)nc(N2CCSC(c3ccccc3)C2)n1 (stereo not shown) [Example 9, 4-(Benzothiazol-6-ylamino)-6-(2-phenyl-thiomorpholin-4-yl)-[1,3,5]triazin-2-ol] | < 1000 | 1000 to 15000 | potent inhibitors |
| Oc1nc(Nc2ccc3ncsc3c2)nc(N2CCSCC2c2ccccc2)n1 (stereo not shown) [Example 10, 4-(Benzothiazol-6-ylamino)-6-(3-phenyl-thiomorpholin-4-yl)-[1,3,5]triazin-2-ol] | < 1000 | 1000 to 15000 | potent inhibitors |
| CN(c1ccc2cn[nH]c2c1)c1nc(O)nc(Nc2ccc3ncsc3c2)n1 [Example 11] | < 1000 | 1000 to 15000 | – |
| CC(C)(Nc1nc(NO)nc(Nc2ccc3ncsc3c2)n1)c1ccccc1 [Example 14] | < 1000 | 1000 to 15000 | – |
| CC(C)(Nc1nc(N)nc(Nc2ccc3ncsc3c2)n1)c1ccccc1 [Example 15, N-(Benzothiazol-6-yl)-N′-(1-methyl-1-phenylethyl)-[1,3,5]triazine-2,4,6-triamine] | 1000 to 15000 | – | – |
